Assay [1] has as its target T1, Substance-P receptor (Cavia porcellus, UniProt P30547). In words: ChEBML_144914. The text has this: (§1) Inhibitory activity against Neurokinin 1 (NK1) receptor from guinea pig lung
Assay [2] deals with T2, Substance-K receptor (Cavia porcellus, UniProt Q64077).
T2 sequence (Q64077 whole entry): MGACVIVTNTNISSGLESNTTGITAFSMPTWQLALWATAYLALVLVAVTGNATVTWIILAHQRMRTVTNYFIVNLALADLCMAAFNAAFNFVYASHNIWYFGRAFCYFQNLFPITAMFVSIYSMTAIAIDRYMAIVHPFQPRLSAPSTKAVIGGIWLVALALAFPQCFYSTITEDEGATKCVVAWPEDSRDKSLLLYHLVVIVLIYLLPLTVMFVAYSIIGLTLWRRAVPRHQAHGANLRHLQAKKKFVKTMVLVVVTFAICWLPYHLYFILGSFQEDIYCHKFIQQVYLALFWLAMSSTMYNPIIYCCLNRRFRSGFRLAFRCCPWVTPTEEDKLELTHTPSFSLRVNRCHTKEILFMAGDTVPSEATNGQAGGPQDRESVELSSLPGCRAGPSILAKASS
In words: ChEBML_142706. The source says:
(§2) Inhibitory activity against Neurokinin 2 (NK2) receptor from guinea pig ileum

Assay [3] concerns the target T1, Substance-P receptor. The assay is described as §1.
Assay [4] has as its target T2, Substance-K receptor. The assay is described as §2.

The structures appear in SMILES notation.

T1 sequence (P30547 whole entry): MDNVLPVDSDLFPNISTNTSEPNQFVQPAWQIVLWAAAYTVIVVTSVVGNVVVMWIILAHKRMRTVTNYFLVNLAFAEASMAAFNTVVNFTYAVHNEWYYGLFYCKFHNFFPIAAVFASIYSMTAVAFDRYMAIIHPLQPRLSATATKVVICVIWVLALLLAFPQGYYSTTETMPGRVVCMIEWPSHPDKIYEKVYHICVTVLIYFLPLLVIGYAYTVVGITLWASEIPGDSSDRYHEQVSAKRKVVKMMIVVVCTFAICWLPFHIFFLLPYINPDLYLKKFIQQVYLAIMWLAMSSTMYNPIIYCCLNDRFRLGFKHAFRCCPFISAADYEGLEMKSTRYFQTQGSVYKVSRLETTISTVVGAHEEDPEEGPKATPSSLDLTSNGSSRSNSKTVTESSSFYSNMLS

By IC50 is commonly meant the point on the concentration scale where inhibition reaches its midpoint. A lower IC50 goes with higher potency. The molecule `COc1cc(C(=O)N2CO[C@](CCN3CCC4(CC3)c3ccccc3C[S+]4[O-])(c3ccc(F)c(F)c3)C2)cc(OC)c1OC` (some centres undefined) yielded a 50% inhibitory concentration (IC50) on Substance-P receptor [1] of 16 nM.
On Substance-K receptor [2], `COc1cc(C(=O)N2CO[C@](CCN3CCC4(CC3)C(=O)N(C)c3ccccc34)(c3ccc(Cl)c(Cl)c3)C2)cc(OC)c1OC` returned a half-inhibitory concentration (IC50) of 34 nM.
As for `COc1cc(C(=O)N2CO[C@](CCN3CCC(C(N)=O)(c4ccccc4)CC3)(c3ccc(F)cc3)C2)cc(OC)c1OC`, 27 nM corresponded to half-maximal inhibition against Substance-P receptor [3] (IC50).
The molecule `COc1cc(C(=O)N2CO[C@](CCN3CCC(C(N)=O)(c4ccccc4)CC3)(c3ccc(F)c(F)c3)C2)cc(OC)c1OC` returned an IC50 against Substance-P receptor [3] of 10 nM.
`COc1cc(C(=O)N2CO[C@](CCN3CCC4(CC3)c3ccccc3C[S+]4[O-])(c3ccc(Cl)c(Cl)c3)C2)cc(OC)c1OC` (some centres undefined) showed an IC50 against Substance-K receptor [2] of 7.5 nM.
`COc1cc(C(=O)N2CO[C@](CCN3CCC(C(=O)N(C)C)(c4ccccc4)CC3)(c3ccc(F)c(F)c3)C2)cc(OC)c1OC` had an IC50 against Substance-P receptor [1] of 27 nM. This lies in the double-digit nanomolar range.
`COc1cc(C(=O)N2CO[C@](CCN3CCC4(CC3)C[S+]([O-])c3ccccc34)(c3ccc(Cl)c(Cl)c3)C2)cc(OC)c1OC` (some centres undefined): the IC50 against Substance-K receptor [4] stood at 7.3 nM.
In the case of `COc1cc(C(=O)N2CO[C@](CCN3CCC(C(N)=O)(c4ccccc4)CC3)(c3ccc(Cl)c(Cl)c3)C2)cc(OC)c1OC`, the IC50 against Substance-K receptor [2] worked out at 91 nM.
Regarding `COc1cc(C(=O)N2CO[C@](CCN3CCC(C(=O)N4CCOCC4)(c4ccccc4)CC3)(c3ccc(Cl)c(Cl)c3)C2)cc(OC)c1OC`, 52 nM corresponded to half-maximal inhibition at Substance-K receptor [4] (IC50).
For `COc1cc(C(=O)N2CO[C@](CCN3CCN(c4ccc(C(C)=O)cc4)CC3)(c3ccc(Cl)c(Cl)c3)C2)cc(OC)c1OC`, the IC50 against Substance-K receptor [4] amounted to 74 nM; at Substance-P receptor [3], 18 nM.
As for `COc1cc(C(=O)N2CO[C@](CCN3CCC(C(=O)N(C)C)(c4ccccc4)CC3)(c3ccc(Cl)cc3)C2)cc(OC)c1OC`, the IC50 on Substance-K receptor [4] is 4.7 nM.
Consider `COc1cc(C(=O)N2CO[C@](CCN3CCC(C(N)=O)(c4ccccc4)CC3)(c3ccc(Cl)cc3)C2)cc(OC)c1OC`, for which, at Substance-P receptor [3], the IC50 was found to be 27 nM.
On to `COc1cc(C(=O)N2CO[C@](CCN3CCC4(CC3)NC(=O)Cc3ccccc34)(c3ccc(F)c(F)c3)C2)cc(OC)c1OC`, for which inhibition against Substance-P receptor [1] was half-maximal at 28 nM (IC50).
